Data reported in patent US20100298300A1, “TRIAZOLOPYRAZINE COMPOUNDS USEFUL FOR THE TREATMENT OF DEGENERATIVE & INFLAMMATORY DISEASES” (priority 2006, published 2010).

What was measured:
[1] = system: MMP1 expression by activated primary synovial fibroblasts; assay: 'MMP assay': MMP1 expression by complex trigger activated synovial fibroblasts (MMP1 ELISA); format: cell-based; details: Homo sapiens, Fibroblast; for EC50: RASFs, complex trigger, 48 hrs, MMP1 ELISA
[2] = target: T1, MAPKAPK5 (Homo sapiens, UniProt Q8IW41); assay: MAPKAP-K5 assay (FlashPlate kinase assay)
T1 sequence (Q8IW41 1-471 isoform Q8IW41-2): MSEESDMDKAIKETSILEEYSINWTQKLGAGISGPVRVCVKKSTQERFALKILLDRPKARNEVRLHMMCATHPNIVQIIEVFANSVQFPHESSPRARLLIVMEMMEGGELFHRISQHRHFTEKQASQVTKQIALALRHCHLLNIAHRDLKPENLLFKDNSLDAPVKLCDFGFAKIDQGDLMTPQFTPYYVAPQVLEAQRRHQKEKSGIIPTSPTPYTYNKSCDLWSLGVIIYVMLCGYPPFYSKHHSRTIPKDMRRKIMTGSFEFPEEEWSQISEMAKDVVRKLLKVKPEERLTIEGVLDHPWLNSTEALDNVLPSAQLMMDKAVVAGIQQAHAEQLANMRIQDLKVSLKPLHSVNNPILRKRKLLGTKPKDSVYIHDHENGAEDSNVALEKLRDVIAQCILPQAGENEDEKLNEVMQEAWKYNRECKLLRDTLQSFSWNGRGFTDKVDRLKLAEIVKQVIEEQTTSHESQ
Description: MAPKAP-K5 reactions are performed in FlashPlate format using 0.1 or 0.2 μCi 33P-ATP; 0.6 μM ATP; 1 mU MAPKAP-K5; 3 μM MAPKAP-K5 peptide substrate, incubated at room temperature for 30 minutes.
The MAPKAP-K5 kinase reaction is performed in a 384 well polypropylene plate (Matrix Technologies) and then transferred to a streptavidin-coated 384 well flashplate (Perkin-Elmer).
To wells containing 2 μL test compound or standard inhibitor, 13 μL Enzyme mix or diluent are added using a Hydra (Robbins Scientific).
Reactions are started by addition of 10 μL of [2,5×] substrate cocktail using a Multidrop (Thermo-Labsystems), to give final concentrations in the assay of:
Plates are incubated at room temperature for 30 minutes.
Reactions are terminated by the addition of 25 μL EDTA (50 mM) to each well using a Micro-fill (Biotek).
Reactions are transferred to a streptavidin-coated flashplate using a Zymark robotic system. Plates are incubated for 60 minutes at room temperature.
All wells are washed 3 times with 100 μl phosphate buffered saline using a Tecan plate washer.
Radioactivity is determined by scintillation counting of the flashplate (empty wells) on a Packard TopCount.
Enzyme Mix: • Enzyme • 50 mM Tris Hcl (pH 7.5) • 0.1 mM EGTA • 2 mM DTT • 1 mg/mL BSA
Reaction Buffer: • 50 mM Tris Hcl (pH 7.5) • 0.1 mM EGTA • 10 mM Magnesium acetate • 2 mM DTT

| Compound | EC50 ([1]; Table 3) [nM] | IC50 [2] [nM] | EC50 ([1]; Table 4) [nM] | IC50 ([1]; complex trigger activated SFs, 48 hrs after treatment, FIG. 3, read-out: IC50 of reduction of MMP1 expression by SFs) [nM] |
| --- | --- | --- | --- | --- |
| CC(C)N1CCN(c2ccc(Nc3ncc(-c4cn[nH]c4)n4ncnc34)cn2)CC1 [Compound 43, [6-(4-Isopropylpiperazin-1-yl)pyridin-3-yl]-[5-(1H-pyrazol-4-yl)-[1,2,4]triazolo[1,5-a]pyrazin-8-yl]amine] | > 1000 | > 1000 |  |  |
| CC(C)N1CCN(c2ccc(Nc3ncc(-c4csc(C(N)=O)c4)n4ncnc34)cn2)CC1 [Compound 55, 4-{8-[6-(4-Isopropylpiperazin-1-yl)pyridin-3-ylamino]-[1,2,4]triazolo[1,5-a]pyrazin-5-yl}thiophene-2-carboxylic acid amide] | 101 to 500 | 101 to 500 |  |  |
| NC(=O)c1cccc2c(-c3cnc(Nc4ccc(N5CCOCC5)cc4)c4ncnn34)csc12 [Compound 80, 3-[8-(4-Morpholin-4-ylphenylamino)-[1,2,4]triazolo[1,5-a]pyrazin-5-yl]-benzo[b]thiophene-7-carboxylic acid amide] | 101 to 500 | > 1000 |  |  |
| OCc1cc(-c2cnc(Nc3ccc(N4CCOCC4)cc3)c3ncnn23)ccn1 [Compound 82] | > 1000 | > 1000 |  |  |
| CC(C)N1CCN(c2ccc(Nc3ncc(-c4ccnc(CO)c4)n4ncnc34)cc2)CC1 [Compound 83, (4-{8-[4-(4-Isopropylpiperazin-1-yl)-phenylamino]-[1,2,4]triazolo[1,5-a]pyrazin-5-yl}pyridin-2-yl)methanol] | > 1000 | > 1000 |  |  |
| CC(C)N1CCN(c2ccc(Nc3ncc(-c4coc(C(N)=O)c4)n4ncnc34)cc2)CC1 [Compound 88, 4-(8-(4-(4-Isopropylpiperazin-1-yl)phenylamino)-[1,2,4]triazolo[1,5-a]pyrazin-5-yl)furan-2-carboxamide] | 501 to 1000 | 1 to 100 |  |  |
| c1nc2c(Nc3ccc(N4CCOCC4)cc3)ncc(-c3ccc4cn[nH]c4c3)n2n1 [Compound 93] | > 1000 | > 1000 |  |  |
| Cc1sc(C(N)=O)cc1-c1cnc(Nc2ccc(N3CCN(C(C)C)CC3)cc2)c2ncnn12 [Compound 95] | > 1000 | > 1000 |  |  |
| Cc1sc(C(N)=O)cc1-c1cnc(Nc2ccc(N3CCN(C(C)C)CC3)nc2)c2ncnn12 [Compound 96] | > 1000 | > 1000 |  |  |
| CC(C)N1CCN(c2ccc(Nc3ncc(-c4cccc5c4CNC5=O)n4ncnc34)cc2)CC1 [Compound 97] | > 1000 | > 1000 |  |  |
| CC(C)N1CCN(c2ccc(Nc3ncc(-c4cccc5c4CNC5=O)n4ncnc34)cn2)CC1 [Compound 98] | > 1000 | > 1000 |  |  |
| O=C1CNCCN1c1ccc(Nc2ncc(-c3cn[nH]c3)n3ncnc23)cc1 [Compound 100, 1-(4-(5-(1H-Pyrazol-4-yl)-[1,2,4]triazolo[1,5-a]pyrazin-8-ylamino)phenyl)piperazin-2-one] | > 1000 | > 1000 |  |  |
| CC(C)N1CCN(c2ccc(Nc3ncc(-c4ccc5cn[nH]c5c4)n4ncnc34)cc2)CC1 [Compound 106] |  | > 1000 |  |  |
| CC(C)N1CCN(c2ccc(Nc3ncc(-c4ccc5c(c4)C(=O)NC5)n4ncnc34)cc2)CC1 [Compound 109] | > 1000 | > 1000 |  |  |
| O=C1NCc2oc(-c3cnc(Nc4ccc(N5CCOCC5)cc4)c4ncnn34)cc21 [Compound 111] | > 1000 | 101 to 500 |  |  |
| CC(C)N1CCN(c2ccc(Nc3ncc(-c4ccc5c(c4)CNC5=O)n4ncnc34)cc2)C(=O)C1 [Compound 112, 5-(8-(4-(4-Isopropyl-2-oxopiperazin-1-yl)phenylamino)-[1,2,4]triazolo[1,5-a]pyrazin-5-yl)isoindolin-1-one] | > 1000 | 101 to 500 |  |  |
| CC(C)N1CCN(c2ccc(Nc3ncc(-c4ccc5c(c4)C(C)(C)NC5=O)n4ncnc34)cc2)CC1 [Compound 114, 5-{8-[4-(4-Isopropylpiperazin-1-yl)-phenylamino]-[1,2,4]triazolo[1,5-a]pyrazin-5-yl}-3,3-dimethyl-2,3-dihydroisoindol-1-one] | > 1000 | > 1000 |  |  |
| O=C(NCc1cccnc1)c1ccc(Nc2ncc(-c3cn[nH]c3)n3ncnc23)cc1 [Compound 118, 4-(5-(1H-Pyrazol-4-yl)-[1,2,4]triazolo[1,5-a]pyrazin-8-ylamino)-N-(pyridin-3-ylmethyl)benzamide] |  | > 1000 | > 1000 |  |
| O=C(NCc1cccnc1)c1ccc(Nc2ncc(-c3cc[nH]c(=O)c3)n3ncnc23)cc1 [Compound 119, 4-(5-(2-Oxo-1,2-dihydropyridin-4-yl)-[1,2,4]triazolo[1,5-a]pyrazin-8-ylamino)-N-(pyridin-3-ylmethyl)benzamide] |  | > 1000 | > 1000 |  |
| COc1cc(Nc2ncc(-c3cn[nH]c3)n3ncnc23)ccc1C(=O)NCc1ccc(C)nc1 [Compound 120, 2-Methoxy-N-(6-methylpyridin-3-yl)methyl-4-[5-(1H-pyrazol-4-yl)-[1,2,4]triazolo[1,5-a]pyrazin-8-ylamino]-benzamide] |  | > 1000 | > 1000 |  |
| COc1cc(Nc2ncc(-c3csc(C(N)=O)c3)n3ncnc23)ccc1C(=O)NCc1ccc(C)nc1 [Compound 121] |  | > 1000 | > 1000 |  |
| COc1cc(Nc2ncc(-c3cn[nH]c3)n3ncnc23)ccc1C(=O)NCc1ccccc1 [Compound 122, N-Benzyl-2-methoxy-4-[5-(1H-pyrazol-4-yl)-[1,2,4]triazolo[1,5-a]pyrazin-8-ylamino]-benzamide] |  | > 1000 | > 1000 |  |

| Compound | EC50 ([1]; Table 3) [nM] | IC50 [2] [nM] | EC50 ([1]; Table 4) [nM] | IC50 ([1]; complex trigger activated SFs, 48 hrs after treatment, FIG. 3, read-out: IC50 of reduction of MMP1 expression by SFs) [nM] |
| --- | --- | --- | --- | --- |
| O=C(NCc1ccccc1)c1cccc(Nc2ncc(-c3cn[nH]c3)n3ncnc23)c1 [Compound 123] |  | > 1000 | > 1000 |  |
| O=C(NCc1ccccn1)c1cccc(Nc2ncc(-c3cn[nH]c3)n3ncnc23)c1 [Compound 124, N-Pyridin-2-ylmethyl 3-[5-(1H-pyrazol-4-yl)-[1,2,4]triazolo[1,5-a]pyrazin-8-ylamino]benzamide] |  | > 1000 | > 1000 |  |
| CCN(CC)C(=O)c1cccc(Nc2ncc(-c3cn[nH]c3)n3ncnc23)c1 [Compound 125] |  | > 1000 | > 1000 |  |
| O=C(c1cccc(Nc2ncc(-c3cn[nH]c3)n3ncnc23)c1)N1CCCC1 [Compound 126] |  | > 1000 | > 1000 |  |
| CC(C)N1CCN(C(=O)c2cccc(Nc3ncc(-c4cn[nH]c4)n4ncnc34)c2)CC1 [Compound 127, (4-Isopropylpiperazin-1-yl)-{3-[5-(1H-pyrazol-4-yl)-[1,2,4]triazolo[1,5-a]pyrazin-8-ylamino]phenyl}methanone] |  | 501 to 1000 | > 1000 |  |
| NC(=O)c1cccc(Nc2ncc(-c3cn[nH]c3)n3ncnc23)c1 [Compound 128] |  | > 1000 | > 1000 |  |
| CCNC(=O)c1cccc(Nc2ncc(-c3cn[nH]c3)n3ncnc23)c1 [Compound 129, N-Ethyl 3-[5-(1H-pyrazol-4-yl)-[1,2,4]triazolo[1,5-a]pyrazin-8-ylamino]benzamide] |  | > 1000 | > 1000 |  |
| O=C(NCC1CCCCC1)c1cccc(Nc2ncc(-c3cn[nH]c3)n3ncnc23)c1 [Compound 130] |  | > 1000 | > 1000 |  |
| O=C(NCc1ccc(O)cc1)c1cccc(Nc2ncc(-c3cn[nH]c3)n3ncnc23)c1 [Compound 131, N-(4-Hydroxybenzyl) 3-[5-(1H-pyrazol-4-yl)-[1,2,4]triazolo[1,5-a]pyrazin-8-ylamino]benzamide] |  | > 1000 | 501 to 1000 |  |
| COc1cc(Nc2ncc(-c3csc(C(N)=O)c3)n3ncnc23)ccc1C(=O)NCc1ccccc1 [Compound 132] |  | > 1000 | > 1000 |  |
| NC(=O)c1cc(-c2cnc(Nc3ccc(NC(=O)c4ccccc4)nc3)c3ncnn23)cs1 [Compound 133] |  | > 1000 | > 1000 |  |
| O=C(Nc1ccc(Nc2ncc(-c3cn[nH]c3)n3ncnc23)cn1)c1ccccc1 [Compound 135] |  | > 1000 |  |  |
| O=C(c1ccc(Nc2ncc(-c3cn[nH]c3)n3ncnc23)cc1)N1CCN(Cc2ccc(F)cc2)CC1 [Compound 144] |  | 501 to 1000 |  |  |
| CCN1CCC[C@H]1CNC(=O)c1ccc(Nc2ncc(-c3cn[nH]c3)n3ncnc23)cc1 [Compound 163] |  |  | > 1000 |  |
| CN(C)Cc1cc(Nc2ncc(-c3ccc4c(c3)CNC4=O)n3ncnc23)ccc1N1CCOCC1 [Compound 175] | > 1000 |  |  |  |
| CC(C)N1CCC(Nc2ncc(-c3ccc4c(c3)CNC4=O)n3ncnc23)CC1 [Compound 186] |  | > 1000 |  |  |
| CC(C)N1CCCN(c2ccc(Nc3ncc(-c4cn[nH]c4)n4ncnc34)cc2)CC1 [Compound 187] |  | > 1000 |  |  |
| CC(C)N1CCCN(c2ccc(Nc3ncc(-c4ccc5c(c4)CNC5=O)n4ncnc34)cc2)CC1 [Compound 188] |  | 1 to 100 |  |  |
| COCCN1CCC(c2ccc(Nc3ncc(-c4ccc5c(c4)CNC5=O)n4ncnc34)cc2)CC1 [Compound 189] |  | 1 to 100 |  |  |
| O=C(N[C@H]1CCN(Cc2ccccc2)C1)c1ccc(Nc2ncc(-c3cn[nH]c3)n3ncnc23)cc1 [Compound 191] |  | > 1000 |  |  |
| C[C@@H]1C[C@H]2[C@@H]3CCC4=CC(=O)C=C[C@]4(C)[C@@]3(F)[C@@H](O)C[C@]2(C)[C@@]1(O)C(=O)CO [dexamethasone, reference compound] |  |  |  | ~1 |
